# Results published in ChEMBL document CHEMBL3352746, “Synthesis and anticancer activity of quinopimaric and maleopimaric acids’ derivatives” (Bioorg Med Chem, 2014).
# Calls of active or inactive are those of the source. The calls are words filed in the database; no cut-off is given here.
# Experiments:
# [1] = Growth inhibition of human OVCAR3 cells; type: functional
# MCF7 = assay: Growth inhibition of human MCF7 cells; type: functional
# [2] = Antitumor activity against mouse AKATOL cells implanted in mouse assessed as tumor growth inhibition at 40 mg/kg, ip dosed daily for 5 days measured 19 days after treatment termination; type: functional; settings: route intraperitoneal, read-out: TGI
# [3] = Growth inhibition of human PC3 cells; type: functional
# [4] = Growth inhibition of human NCI-ADR-RES cells; type: functional
# IGROV-1 = assay: Growth inhibition of human IGROV1 cells; type: functional
# [5] = Growth inhibition of human BT549 cells; type: functional
# [6] = Growth inhibition of human UACC62 cells; type: functional
# SK-MEL-28 = assay: Growth inhibition of human SK-MEL-28 cells; type: functional
# SW-620 = assay: Growth inhibition of human SW620 cells; type: functional
# SF-268 = assay: Growth inhibition of human SF268 cells; type: functional
# Mus musculus [7] = assay: Toxicity in mouse P388 cells implanted mouse assessed as mean spleen weight at 40 mg/kg, ip dosed daily for 5 days administered 24 hrs after tumor implantation; type: organism-based; design: dose 40 mg/kg, route intraperitoneal; settings: in vivo
# 786-0 = assay: Growth inhibition of human 786-0 cells; type: functional
# P388 = assay: Antitumor activity against mouse P388 cells implanted in mouse assessed as increase in life span at 10 mg/kg, ip dosed daily for 5 days administered 24 hrs after tumor implantation; type: functional; settings: route intraperitoneal
# [8] = Growth inhibition of human HOP92 cells; type: functional
# Mus musculus [9] = assay: Toxicity in mouse P388 cells implanted mouse assessed as mean ascites volume at 60 mg/kg, ip dosed daily for 5 days administered 24 hrs after tumor implantation; type: organism-based; design: dose 60 mg/kg, route intraperitoneal; settings: in vivo
# [10] = Antitumor activity against mouse AKATOL cells implanted in mouse assessed as tumor growth inhibition at 40 mg/kg, ip dosed daily for 5 days measured 8 to 9 days after treatment termination; type: functional; settings: route intraperitoneal, read-out: TGI
# ACHN = assay: Growth inhibition of human ACHN cells; type: functional
# [11] = Antitumor activity against mouse AKATOL cells implanted in mouse assessed as tumor growth inhibition at 40 mg/kg, ip dosed daily for 5 days measured 1 day after treatment termination; type: functional; settings: route intraperitoneal, read-out: TGI
# [12] = Growth inhibition of human HCC2998 cells; type: functional
# [13] = tested on: Lewis lung carcinoma cell line; assay: Antitumor activity against mouse LLC cells implanted in mouse assessed as tumor growth inhibition at 40 mg/kg, ip dosed daily for 5 days measured 12 days after treatment termination; type: functional; settings: route intraperitoneal, read-out: TGI
# [14] = tested on: Lewis lung carcinoma cell line; assay: Antitumor activity against mouse LLC cells implanted in mouse assessed as tumor growth inhibition at 40 mg/kg, ip dosed daily for 5 days measured 1 day after treatment termination; type: functional; settings: route intraperitoneal, read-out: TGI
# NCI60 = assay: Cytotoxicity against human NCI60 cells assessed as cell growth at 10 uM; type: functional
# SN12C = assay: Growth inhibition of human SN12C cells; type: functional
# NCI-H226 = assay: Growth inhibition of human NCI-H226 cells; type: functional
# [15] = tested on: Lewis lung carcinoma cell line; assay: Antitumor activity against mouse LLC cells implanted in mouse assessed as tumor growth inhibition at 40 mg/kg, ip dosed daily for 5 days measured 16 days after treatment termination; type: functional; settings: route intraperitoneal, read-out: TGI
# [16] = Growth inhibition of human UACC257 cells; type: functional
# [17] = Antitumor activity against mouse CA-755 cells implanted in mouse assessed as tumor growth inhibition at 40 mg/kg, ip dosed daily for 5 days measured 12 days after treatment termination; type: functional; settings: CA-755, ip, route intraperitoneal, read-out: TGI
# Mus musculus [18] = assay: Toxicity in mouse P388 cells implanted mouse assessed as mouse mortality at 40 mg/kg, ip dosed daily for 5 days administered 24 hrs after tumor implantation; type: organism-based; design: dose 40 mg/kg, route intraperitoneal; settings: in vivo
# NCI-H322M = assay: Growth inhibition of human NCI-H322M cells; type: functional
# Mus musculus [19] = assay: Toxicity in mouse Ehrlich carcinoma cells implanted mouse assessed as mean ascites volume at 50 mg/kg, ip dosed daily for 5 days administered 48 hrs after tumor implantation; type: organism-based; design: dose 50 mg/kg, route intraperitoneal; settings: in vivo
# NCI-H23 = assay: Growth inhibition of human NCI-H23 cells; type: functional
# DU-145 = assay: Growth inhibition of human DU145 cells; type: functional
# MDA-MB-435 = assay: Growth inhibition of human MDA-MB-435 cells; type: functional
# NCI-H522 = assay: Growth inhibition of human NCI-H522 cells; type: functional
# [20] = Growth inhibition of human HCT15 cells; type: functional
# [21] = Growth inhibition of human SF295 cells; type: functional
# [22] = Growth inhibition of human OVCAR4 cells; type: functional, OVCAR-4
# NCI-H460 = assay: Growth inhibition of human NCI-H460 cells; type: functional
# SK-MEL-5 = assay: Growth inhibition of human SK-MEL-5 cells; type: functional
# Mus musculus [23] = assay: Toxicity in mouse P388 cells implanted mouse assessed as mean spleen weight at 60 mg/kg, ip dosed daily for 5 days administered 24 hrs after tumor implantation; type: organism-based; design: dose 60 mg/kg, route intraperitoneal; settings: in vivo
# [24] = read-out: pLC50 (the source's name) (converted)
smiles,measurement,setting,value
COC(=O)[C@]1(C)CCC[C@]2(C)[C@H]3C[C@H]4C(C(C)C)=C[C@]3(CC[C@H]21)[C@@H]1/C(=N/O)CC/C(=N\O)[C@@H]14,GI50,[1]; OVCAR-3,2.4 µM
same,CC50,"[1]; OVCAR-3, read-out: pLC50 (the source's name) (converted)",15.8 µM
same,TGI,"[1]; OVCAR-3, read-out: pTGI (converted)",5.37 µM
same,GI50,MCF7,1.78 µM
same,CC50,MCF7; [24],9.55 µM
same,TGI,MCF7; read-out: pTGI (converted),4.07 µM
same,inhibition in vivo at 40 mg/kg,[2],44%
same,GI50,[3]; PC-3,4.37 µM
same,CC50,"[3]; PC-3, read-out: pLC50 (the source's name) (converted)",45.7 µM
same,TGI,"[3]; PC-3, read-out: pTGI (converted)",15.1 µM
same,GI50,[4],3.16 µM
same,CC50,[4]; read-out: pLC50 (converted),> 100 µM
same,TGI,[4]; read-out: pTGI (converted),9.55 µM
same,GI50,IGROV-1; IGROV-1,4.57 µM
same,CC50,"IGROV-1; IGROV-1, read-out: pLC50 (converted)",> 100 µM
same,TGI,"IGROV-1; IGROV-1, read-out: pTGI (converted)",21.9 µM
same,GI50,[5]; BT-549,3.55 µM
same,CC50,"[5]; BT-549, read-out: pLC50 (the source's name) (converted)",36.3 µM
same,TGI,"[5]; BT-549, read-out: pTGI (converted)",11.2 µM
same,GI50,[6]; UACC-62,4.68 µM
same,CC50,"[6]; UACC-62, read-out: pLC50 (the source's name) (converted)",67.6 µM
same,TGI,"[6]; UACC-62, read-out: pTGI (converted)",22.4 µM
same,GI50,SK-MEL-28,9.33 µM
same,CC50,SK-MEL-28; [24],53.7 µM
same,TGI,SK-MEL-28; read-out: pTGI (converted),22.9 µM
same,GI50,SW-620,3.47 µM
same,CC50,SW-620; [24],49 µM
same,TGI,SW-620; read-out: pTGI (converted),14.5 µM
same,GI50,SF-268,4.37 µM
same,CC50,SF-268; [24],55 µM
same,TGI,SF-268; read-out: pTGI (converted),17 µM
same,Activity,Mus musculus [7],212 mg
same,GI50,786-0,5.75 µM
same,CC50,786-0; [24],53.7 µM
same,TGI,786-0; read-out: pTGI (converted),19.5 µM
same,ILS at 10 mg/kg,P388,-4%
same,GI50,[8]; HOP-92,2.09 µM
same,CC50,"[8]; HOP-92, read-out: pLC50 (the source's name) (converted)",39.8 µM
same,TGI,"[8]; HOP-92, read-out: pTGI (converted)",5.01 µM
same,Activity,Mus musculus [9],0.6 mL
same,inhibition in vivo at 40 mg/kg,[10],41%
same,GI50,ACHN,3.31 µM
same,CC50,ACHN; [24],32.4 µM
same,TGI,ACHN; read-out: pTGI (converted),10.5 µM
same,inhibition in vivo at 40 mg/kg,[11],57%
same,GI50,[12]; HCC 2998,2.75 µM
same,CC50,"[12]; HCC 2998, read-out: pLC50 (the source's name) (converted)",33.1 µM
same,TGI,"[12]; HCC 2998, read-out: pTGI (converted)",6.46 µM
same,inhibition in vivo at 40 mg/kg,[13],30%
same,inhibition in vivo at 40 mg/kg,[14],47%
same,Activity,NCI60,Active
same,GI50,SN12C,1.86 µM
same,CC50,SN12C; [24],8.13 µM
same,TGI,SN12C; read-out: pTGI (converted),3.89 µM
same,GI50,NCI-H226,7.94 µM
same,CC50,NCI-H226; [24],85.1 µM
same,TGI,NCI-H226; read-out: pTGI (converted),28.2 µM
same,inhibition in vivo at 40 mg/kg,[15],34%
same,GI50,[16]; UACC-257,3.63 µM
same,CC50,"[16]; UACC-257, read-out: pLC50 (the source's name) (converted)",38.9 µM
same,TGI,"[16]; UACC-257, read-out: pTGI (converted)",12 µM
same,inhibition in vivo at 40 mg/kg,[17],35%
same,Activity,Mus musculus [18],Non-toxic
same,GI50,NCI-H322M,2.69 µM
same,CC50,NCI-H322M; [24],20.9 µM
same,TGI,NCI-H322M; read-out: pTGI (converted),6.17 µM
same,Activity,Mus musculus [19],0.63 mL
same,GI50,NCI-H23,3.72 µM
same,CC50,NCI-H23; [24],93.3 µM
same,TGI,NCI-H23; read-out: pTGI (converted),15.8 µM
same,GI50,DU-145; DU-145,3.02 µM
same,CC50,"DU-145; DU-145, read-out: pLC50 (converted)",> 100 µM
same,TGI,"DU-145; DU-145, read-out: pTGI (converted)",15.8 µM
same,GI50,MDA-MB-435,4.9 µM
same,CC50,MDA-MB-435; [24],95.5 µM
same,TGI,MDA-MB-435; read-out: pTGI (converted),23.4 µM
same,GI50,NCI-H522,3.8 µM
same,CC50,NCI-H522; [24],93.3 µM
same,TGI,NCI-H522; read-out: pTGI (converted),17.8 µM
same,GI50,[20]; HCT-15,3.39 µM
same,CC50,"[20]; HCT-15, read-out: pLC50 (the source's name) (converted)",39.8 µM
same,TGI,"[20]; HCT-15, read-out: pTGI (converted)",12.9 µM
same,GI50,[21]; SF-295,5.89 µM
same,CC50,"[21]; SF-295, read-out: pLC50 (the source's name) (converted)",64.6 µM
same,TGI,"[21]; SF-295, read-out: pTGI (converted)",21.4 µM
same,GI50,[22]; OVCAR-4,3.55 µM
same,CC50,"[22]; OVCAR-4, read-out: pLC50 (converted)",> 100 µM
same,TGI,"[22]; OVCAR-4, read-out: pTGI (converted)",19.1 µM
same,GI50,NCI-H460,2.29 µM
same,CC50,NCI-H460; [24],46.8 µM
same,TGI,NCI-H460; read-out: pTGI,5.25 µM
same,GI50,SK-MEL-5,3.09 µM
same,CC50,SK-MEL-5; [24],36.3 µM
same,TGI,SK-MEL-5; read-out: pTGI (converted),11.5 µM
same,Activity,Mus musculus [23],144 mg
